Data from ChEMBL document CHEMBL5360614, “Quinoline Thiourea-Based Zinc Ionophores with Antibacterial Activity” (J Med Chem, 2023).
Activity calls are given as the source filed them. The calls are words filed in the database; no cut-off is given here.

Columns and labels:
Staphylococcus aureus [1] = test: In vivo antibacterial activity against Staphylococcus aureus MTCC-96 infected in Balb/c mouse assessed as reduction in bacterial load by measuring CFU in spleen at 31.6 microM/Kg, iv for 7 days in presence of ZnCl2 by CFU assay; format: functional, organism-based; conditions: time 7.0 day
PBMC = test: Cytotoxicity against human PBMC cells assessed as reduction in cell viability at 12.5 to 200 uM incubated for 24 hrs by MTT assay; format: toxicity, cell-based; conditions: dose 12.5-200 µM
Staphylococcus aureus [2] = test: In vivo antibacterial activity against Staphylococcus aureus MTCC-96 infected in Balb/c mouse assessed as liver central vein with minimum infiltration at 156.5 microM/Kg, iv for 7 days by hematoxylin and eosin staining based microscopic analysis; format: functional, organism-based; conditions: time 7.0 day
Lipid bilayer [3] = test: (§1) Induction of ionophore activity across EYPC:CHOL (8:2) large unilamellar vesicles assessed as transmembrane Zn2+ ion transport by measuring fluorescence intensity for CFZ dye at 5 to 20 uM preincubated for 3 mins followed by ZnCl2 addition and mesured after 7.5 mins by CFZ dye based fluorescence spectrophotometric analysis; conditions: filed as opener; dose 5-20 µM, time 10.5 min
Lipid bilayer [4] = test: as §1, with “cation” for “Zn2+ ion”, “measuring decrease in” for “measuring”, “HPTS” for “CFZ”, “dye” for “dye at 5 to 20 uM”, “NaCl” for “ZnCl2”; conditions: time 10.5 min
Staphylococcus aureus [5] = test: In vivo antibacterial activity against Staphylococcus aureus MTCC-96 infected in Balb/c mouse assessed as less dilated portal vein in liver at 156.5 microM/Kg, iv for 7 days by hematoxylin and eosin staining based microscopic analysis; format: functional, organism-based; conditions: time 7.0 day
Staphylococcus aureus [6] = test: In vivo antibacterial activity against Staphylococcus aureus MTCC-96 infected in Balb/c mouse assessed as less dilated hepatic artery at 156.5 microM/Kg, iv for 7 days by hematoxylin and eosin staining based microscopic analysis; format: functional, organism-based; conditions: time 7.0 day
A549 = test: Cytotoxicity against human A549 cells assessed as reduction in cell viability at 1 to 100 uM incubated for 44 hrs by MTT assay; format: toxicity, cell-based; conditions: a549, 44 h, dose 1-100 µM
Lipid bilayer [7] = test: as §1, with “anion” for “Zn2+ ion”, “measuring decrease in” for “measuring”, “HPTS” for “CFZ”, “10” for “5 to 20”; conditions: filed as opener, time 10.5 min
Staphylococcus aureus [8] = test: Bactericidal activity against Staphylococcus aureus MTCC-96 at 2 times MIC incubated for 1 hrs by time kill assay; format: functional, organism-based
Staphylococcus aureus [9] = test: In vivo antibacterial activity against Staphylococcus aureus MTCC-96 infected in Balb/c mouse assessed as normal morphology of spleen tissue at 156.5 microM/Kg, iv for 7 days by hematoxylin and eosin staining based microscopic analysis; format: functional, organism-based; conditions: time 7.0 day
Staphylococcus aureus [10] = test: In vivo antibacterial activity against Staphylococcus aureus MTCC-96 infected in Balb/c mouse assessed as uniform distribution of hepatocytes in liver tissue at 31.6 microM/Kg, iv for 7 days in presence of ZnCl2 by hematoxylin and eosin staining based microscopic analysis; format: functional, organism-based; conditions: time 7.0 day
Lipid bilayer [11] = test: as §1, with “cation” for “Zn2+ ion”, “measuring decrease in” for “measuring”, “HPTS” for “CFZ”, “dye” for “dye at 5 to 20 uM”, “CsCl” for “ZnCl2”; conditions: time 10.5 min
Staphylococcus aureus [12] = test: Antibacterial activity against Staphylococcus aureus MTCC-96 assessed as reduction in bacterial growth incubated for 14 to 16 hrs in presence of EGTA by microbroth dilution method; format: functional; conditions: time 14-16 hrs
Staphylococcus aureus [13] = test: Antibacterial activity against Staphylococcus aureus MTCC-96 assessed as resistance development by measuring fold increase in MIC and measured after 30 days in presence of ZnCl2 by microbroth dilution method; format: functional, organism-based; conditions: time 30.0 day
Lipid bilayer [14] = test: (§2) Induction of ionophore activity across EYPC:CHOL (8:2) large unilamellar vesicles assessed as transmembrane Zn2+ ion transport by measuring decrease in fluorescence intensity for HPTS dye at 10 uM preincubated for 3 mins in presence of FCCP followed by ZnCl2 addition and mesured after 7.5 mins by HPTS dye based fluorescence spectrophotometric analysis; conditions: filed as opener, time 10.5 min
Erythrocyte = test: Hemolytic activity in human Red blood cells assessed as hemolysis rate at 1.6 to 50 uM incubated for 1 to 24 hrs in presence of ZnCl2 by absorbance based analysis; format: toxicity, cell-based; conditions: dose lower 1.6 µM, time lower 1 hrs, dose upper 50 µM, time upper 24 hrs
Staphylococcus aureus [15] = test: In vivo antibacterial activity against Staphylococcus aureus MTCC-96 infected in Balb/c mouse assessed as uniform distribution of hepatic lobules in liver tissue at 31.6 microM/Kg, iv for 7 days in presence of ZnCl2 by hematoxylin and eosin staining based microscopic analysis; format: functional, organism-based; conditions: time 7.0 day
Staphylococcus aureus [16] = test: Antibacterial activity against Staphylococcus aureus MTCC-96 assessed as reduction in bacterial growth incubated for 14 to 16 hrs in presence of 100 to 400 uM CaCl2 by microbroth dilution method; format: functional, organism-based; conditions: time 14-16 hrs
Staphylococcus aureus [17] = test: In vivo antibacterial activity against Staphylococcus aureus MTCC-96 infected in Balb/c mouse assessed as uniform distribution of sinusoids in liver tissue at 31.6 microM/Kg, iv for 7 days in presence of ZnCl2 by hematoxylin and eosin staining based microscopic analysis; format: functional, organism-based; conditions: time 7.0 day
Lipid bilayer [18] = test: as §2, with “anion” for “Zn2+ ion”, “dye” for “dye at 10 uM”, “mins” for “mins in presence of FCCP”, “ZnSO4” for “ZnCl2”; conditions: filed as opener; time 10.5 min
Staphylococcus aureus [19] = test: In vivo antibacterial activity against Staphylococcus aureus MTCC-96 infected in Balb/c mouse assessed as normal morphology of spleen tissue at 31.6 microM/Kg, iv for 7 days in presence of ZnCl2 by hematoxylin and eosin staining based microscopic analysis; format: functional, organism-based; conditions: time 7.0 day
Staphylococcus aureus [20] = test: Bactericidal activity against Staphylococcus aureus MTCC-96 at 2 times MIC incubated for 1 hrs in presence of ZnCl2 by time kill assay; format: functional, organism-based
Staphylococcus aureus [21] = test: Antibacterial activity against Staphylococcus aureus MTCC-96 assessed as reduction in bacterial growth incubated for 14 to 16 hrs in presence of 100 to 400 uM ZnSO4 by microbroth dilution method; format: functional, organism-based; conditions: time 14-16 hrs
Staphylococcus aureus [22] = test: In vivo antibacterial activity against Staphylococcus aureus MTCC-96 infected in Balb/c mouse assessed as normal architecture of portal vein in liver tissue at 31.6 microM/Kg, iv for 7 days in presence of ZnCl2 by hematoxylin and eosin staining based microscopic analysis; format: functional, organism-based; conditions: time 7.0 day
Staphylococcus aureus [23] = test: Bactericidal activity against Staphylococcus aureus MTCC-96 assessed as reduction in bacterial colony formation at 2 times MIC incubated upto 8 hrs in presence of ZnCl2 by agar-plate method; format: functional, organism-based
Staphylococcus aureus [24] = test: Disruption of membrane integrity in Staphylococcus aureus MTCC-96 assessed as increase in fluorescence intensity at 4 to 8 uM by PI staining based fluorescence analysis; format: functional, organism-based; conditions: dose 4-8 µM
Lipid bilayer [25] = test: as §2, with “upto 25” for “at 10”, “mins” for “mins in presence of FCCP”; conditions: filed as opener, time 10.5 min
Lipid bilayer [26] = test: as §2, with “cation” for “Zn2+ ion”, “dye” for “dye at 10 uM”, “mins” for “mins in presence of FCCP”, “CuCl2” for “ZnCl2”; conditions: filed as opener; time 10.5 min
Staphylococcus aureus [27] = test: In vivo antibacterial activity against Staphylococcus aureus MTCC-96 infected in Balb/c mouse assessed as reduction in bacterial load by measuring CFU in liver at 31.6 microM/Kg, iv for 7 days in presence of ZnCl2 by CFU assay; format: functional, organism-based; conditions: time 7.0 day
Staphylococcus aureus [28] = test: Antibacterial activity against Staphylococcus aureus MTCC-96 assessed as reduction in bacterial growth incubated for 14 to 16 hrs in presence of 100 to 400 uM MnCl2 by microbroth dilution method; format: functional, organism-based; conditions: time 14-16 hrs

FC(F)(F)c1cc(NC(=S)Nc2cccc3ccc(-n4cnc5ccccc54)nc23)cc(C(F)(F)F)c1
Activity (Staphylococcus aureus [1]): Active
Activity (PBMC): Non-Toxic
Activity (Staphylococcus aureus [2]): Active
Activity (Lipid bilayer [3]): Dose-Dependent Effect
Activity (Lipid bilayer [4]): inactive
Activity (Staphylococcus aureus [5]): Active
Activity (Staphylococcus aureus [6]): Active
Activity (A549): Non-Toxic
Activity (Lipid bilayer [7]): Active
Activity (Staphylococcus aureus [8]): Active
Activity (Staphylococcus aureus [9]): Active
Activity (Staphylococcus aureus [10]): Active
Activity (Lipid bilayer [11]): inactive
MIC (Staphylococcus aureus [12]): 6.25 µM
Activity (Staphylococcus aureus [13]): inactive
Activity (Lipid bilayer [14]): Active
Activity (Erythrocyte): Non-Toxic
Activity (Staphylococcus aureus [15]): Active
Activity (Staphylococcus aureus [16]): inactive
Activity (Staphylococcus aureus [17]): Active
Activity (Lipid bilayer [18]): Active
Activity (Staphylococcus aureus [19]): Active
Activity (Staphylococcus aureus [20]): Active
Activity (Staphylococcus aureus [21]): Active
Activity (Staphylococcus aureus [22]): Active
Activity (Staphylococcus aureus [23]): Active
Activity (Staphylococcus aureus [24]): inactive
Activity (Lipid bilayer [25]): Active
Activity (Lipid bilayer [26]): Active
Activity (Staphylococcus aureus [27]): Active
Activity (Staphylococcus aureus [28]): inactive
